The text below walks through data of PubChem BioAssay AID1745844 (Carcinogenic Potency Database (CPDB), 2022).

The data set concerns rodent lifetime carcinogenesis bioassay, tumor incidence TD50. Briefly: carcinogenic potency in animals, long-term in vivo studies, CPDB compilation (AID 1745844).
Setting [1] is: rat, strain Fischer 344, males, by gavage, site: any site (literature study), lesion: several types, types named in the paper, dosed 103 weeks, study length 104 weeks.

Calls of active or inactive are those of the source. How the calls were made is not given here.

For `CCOC(=O)N(CC)N=O`, the TD50 is, setting by setting: (rat, strain Donryu, females, in drinking water, site: any site (literature study), lesion: several types, types named in the paper, dosed 51 weeks, study length 60 weeks) 0.0784 mg/kg/day; (rat, strain Donryu, females, in drinking water, site: duodenum, lesion: adenocarcinoma, dosed 51 weeks, study length 60 weeks) 0.555 mg/kg/day; (rat, strain Donryu, females, in drinking water, site: esophagus, lesion: papilloma, dosed 51 weeks, study length 60 weeks) 0.473 mg/kg/day; (rat, strain Donryu, females, in drinking water, site: esophagus, lesion: squamous-cell carcinoma, dosed 51 weeks, study length 60 weeks) 0.54 mg/kg/day; (rat, strain Donryu, females, in drinking water, site: forestomach, lesion: papilloma, dosed 51 weeks, study length 60 weeks) 0.508 mg/kg/day; (rat, strain Donryu, females, in drinking water, site: forestomach, lesion: squamous-cell carcinoma, dosed 51 weeks, study length 60 weeks) 0.248 mg/kg/day. Moreover, the TD50 (rat, strain Donryu, females, in drinking water, site: several sites, sites named in the paper, lesion: papilloma, dosed 51 weeks, study length 60 weeks) stood at 0.339 mg/kg/day; the TD50 (rat, strain Donryu, females, in drinking water, site: several sites, sites named in the paper, lesion: squamous-cell carcinoma, dosed 51 weeks, study length 60 weeks) amounted to 0.164 mg/kg/day; the TD50 (rat, strain F344/DuCrj, females, in drinking water, site: any site (literature study), lesion: one or several types, types not named, dosed 97 weeks, study length 112 weeks) is 0.135 mg/kg/day; the TD50 (rat, strain F344/DuCrj, females, in drinking water, site: esophagus, lesion: papilloma, dosed 97 weeks, study length 112 weeks) was 0.514 mg/kg/day; the TD50 (rat, strain F344/DuCrj, females, in drinking water, site: esophagus, lesion: squamous-cell carcinoma, dosed 97 weeks, study length 112 weeks) was 0.139 mg/kg/day; the TD50 (rat, strain F344/DuCrj, females, in drinking water, site: forestomach, lesion: papilloma, dosed 97 weeks, study length 112 weeks) was 0.0796 mg/kg/day. Further, the TD50 reads like this: (rat, strain F344/DuCrj, females, in drinking water, site: forestomach, lesion: squamous-cell carcinoma, dosed 97 weeks, study length 112 weeks) 0.213 mg/kg/day; (rat, strain F344/DuCrj, females, in drinking water, site: oral cavity, lesion: papilloma, dosed 97 weeks, study length 112 weeks) 3.02 mg/kg/day; (rat, strain F344/DuCrj, females, in drinking water, site: oral cavity, lesion: squamous-cell carcinoma, dosed 97 weeks, study length 112 weeks) 0.784 mg/kg/day; (rat, strain F344/DuCrj, females, in drinking water, site: upper gastrointestinal tract, lesion: several types, types named in the paper, dosed 97 weeks, study length 112 weeks) 0.0553 mg/kg/day.

Turning to `CC(C)(C)NC[C@H](O)COc1cccc2c1CCCC2=O`, the TD50 by setting is: (mouse, strain CF-1, females, in feed, site: liver, lesion: hepatoma, dosed 78 weeks, study length 78 weeks) 5010 mg/kg/day; (mouse, strain CF-1, females, in feed, site: lung, lesion: alveogenic adenocarcinoma, dosed 78 weeks, study length 78 weeks) 2500 mg/kg/day; (mouse, strain CF-1, females, in feed, site: uterus, lesion: leiomyoma, dosed 78 weeks, study length 78 weeks) 1220 mg/kg/day; (rat, strain Wistar albino, females, in feed, site: liver, lesion: hepatoma, benign, dosed 104 weeks, study length 104 weeks) 2360 mg/kg/day; (rat, strain Wistar albino, females, in feed, site: mammary gland, lesion: fibroadenoma, dosed 104 weeks, study length 104 weeks) 71 mg/kg/day; (rat, strain Wistar albino, males, in feed, site: liver, lesion: hepatoma, benign, dosed 104 weeks, study length 104 weeks) 982 mg/kg/day. This molecule showed a TD50 (rat, strain Wistar albino, males, in feed, site: pituitary gland, lesion: adenoma, dosed 104 weeks, study length 104 weeks) of 71.9 mg/kg/day.

For the molecule `O=C1NCCN1/N=C/c1ccc([N+](=O)[O-])o1`, the TD50 runs as follows: (rat, strain Sprague-Dawley, females, in feed, site: all sites, lesion: lymphoblastic lymphoma, dosed 46 weeks, study length 66 weeks) 82 mg/kg/day; (rat, strain Sprague-Dawley, females, in feed, site: mammary gland, lesion: adenocarcinoma, dosed 46 weeks, study length 66 weeks) 5.26 mg/kg/day.

Consider `ClCOCCCCOCCl`, for which the carcinogen call (mouse, strain Ha/ICR, females, i.p., site: abdomen, lesion: sarcoma, dosed 81 weeks, study length 81 weeks) is “negative (inactive)”.

With `Cc1cccc(C)c1`, the TD50 by setting is: (mouse, strain B6C3F1, females, by gavage, site: liver, lesion: hepatocellular adenoma + hepatocellular carcinoma + neoplastic nodule, dosed 103 weeks, study length 104 weeks) 7040 mg/kg/day; (mouse, strain B6C3F1, females, by gavage, site: lung, lesion: alveolar/bronchiolar adenoma + alveolar/bronchiolar carcinoma, dosed 103 weeks, study length 104 weeks) 5130 mg/kg/day; (mouse, strain B6C3F1, females, by gavage, site: thyroid gland, lesion: follicular-cell adenoma, dosed 103 weeks, study length 104 weeks) 4790 mg/kg/day (inactive); (mouse, strain B6C3F1, males, by gavage, site: lung, lesion: alveolar/bronchiolar adenoma + alveolar/bronchiolar carcinoma, dosed 103 weeks, study length 104 weeks) 7600 mg/kg/day; (rat, strain Fischer 344, females, by gavage, site: any site (literature study), lesion: several types, types named in the paper, dosed 103 weeks, study length 104 weeks) 1930 mg/kg/day; (rat, strain Fischer 344, females, by gavage, site: liver, lesion: hepatocellular adenoma + hepatocellular carcinoma + neoplastic nodule, dosed 103 weeks, study length 104 weeks) 51300 mg/kg/day. In addition, the TD50 (rat, strain Fischer 344, females, by gavage, site: mammary gland, lesion: adenoma, NOS, dosed 103 weeks, study length 104 weeks) was 4110 mg/kg/day (inactive); the TD50 under setting [1] was 700 mg/kg/day (inactive); the TD50 (rat, strain Sprague-Dawley, females, by gavage, site: all sites, lesion: lymphoma and leukemia, combined, dosed 104 weeks, study length 123 weeks) is 4170 mg/kg/day; the TD50 (rat, strain Sprague-Dawley, females, by gavage, site: all sites, lesion: lymphoma and leukemia, combined, dosed 104 weeks, study length 141 weeks) was found to be 5170 mg/kg/day; the TD50 (rat, strain Sprague-Dawley, females, by gavage, site: any site (literature study), lesion: malignant tumor, dosed 104 weeks, study length 123 weeks) turned out to be 1870 mg/kg/day; the TD50 (rat, strain Sprague-Dawley, females, by gavage, site: any site (literature study), lesion: malignant tumor, dosed 104 weeks, study length 141 weeks) came to 524 mg/kg/day. Besides, the TD50 (rat, strain Sprague-Dawley, females, by gavage, site: any site (literature study), lesion: several types, types named in the paper, dosed 104 weeks, study length 141 weeks) is 304 mg/kg/day; the TD50 (rat, strain Sprague-Dawley, females, by gavage, site: ear duct, lesion: carcinoma, dosed 104 weeks, study length 123 weeks) was 18000 mg/kg/day; the TD50 (rat, strain Sprague-Dawley, females, by gavage, site: head, lesion: carcinoma, dosed 104 weeks, study length 123 weeks) was 5620 mg/kg/day; the TD50 (rat, strain Sprague-Dawley, females, by gavage, site: head, lesion: carcinoma, dosed 104 weeks, study length 141 weeks) is 2830 mg/kg/day; the TD50 (rat, strain Sprague-Dawley, females, by gavage, site: mammary tissue, wider than the gland, lesion: carcinoma, dosed 104 weeks, study length 141 weeks) was 1750 mg/kg/day; the TD50 (rat, strain Sprague-Dawley, females, by gavage, site: oral cavity, lesion: carcinoma, dosed 104 weeks, study length 123 weeks) stood at 5860 mg/kg/day. In addition, the TD50 was determined as 58400 mg/kg/day (rat, strain Sprague-Dawley, males, by gavage, site: Zymbal's gland, lesion: carcinoma, dosed 104 weeks, study length 141 weeks); 8150 mg/kg/day (rat, strain Sprague-Dawley, males, by gavage, site: all sites, lesion: lymphoma and leukemia, combined, dosed 104 weeks, study length 123 weeks); 4170 mg/kg/day (rat, strain Sprague-Dawley, males, by gavage, site: all sites, lesion: lymphoma and leukemia, combined, dosed 104 weeks, study length 141 weeks); 1820 mg/kg/day (rat, strain Sprague-Dawley, males, by gavage, site: any site (literature study), lesion: malignant tumor, dosed 104 weeks, study length 123 weeks); 1670 mg/kg/day (rat, strain Sprague-Dawley, males, by gavage, site: any site (literature study), lesion: malignant tumor, dosed 104 weeks, study length 141 weeks); 4070 mg/kg/day (rat, strain Sprague-Dawley, males, by gavage, site: any site (literature study), lesion: several types, types named in the paper, dosed 104 weeks, study length 123 weeks). In addition, the TD50 is, setting by setting: (rat, strain Sprague-Dawley, males, by gavage, site: ear duct, lesion: carcinoma, dosed 104 weeks, study length 123 weeks) 18300 mg/kg/day; (rat, strain Sprague-Dawley, males, by gavage, site: head, lesion: carcinoma, dosed 104 weeks, study length 123 weeks) 3440 mg/kg/day; (rat, strain Sprague-Dawley, males, by gavage, site: head, lesion: carcinoma, dosed 104 weeks, study length 141 weeks) 5170 mg/kg/day; (rat, strain Sprague-Dawley, males, by gavage, site: oral cavity, lesion: carcinoma, dosed 104 weeks, study length 123 weeks) 4440 mg/kg/day; (rat, strain Sprague-Dawley, males, by gavage, site: oral cavity, lesion: carcinoma, dosed 104 weeks, study length 141 weeks) 5820 mg/kg/day. Moreover, the carcinogen call (mouse, strain B6C3F1, males, by gavage, site: any site (literature study), lesion: several types, types named in the paper, dosed 103 weeks, study length 104 weeks) is “negative (inactive)”.

In the case of `NC(=O)OCC(COC(N)=O)c1ccccc1`, the TD50 (mouse, strain Charles River CD1, females, in feed, site: liver, lesion: hepatocellular adenoma, dosed 92 weeks, study length 92 weeks) was 10400 mg/kg/day; the TD50 (mouse, strain Charles River CD1, females, in feed, site: liver, lesion: several types, types named in the paper, dosed 92 weeks, study length 92 weeks) came out at 10200 mg/kg/day; the TD50 (mouse, strain Charles River CD1, males, in feed, site: liver, lesion: hepatocellular adenoma, dosed 92 weeks, study length 92 weeks) was 5770 mg/kg/day; the TD50 (rat, strain Charles River CD (Sprague-Dawley), females, in feed, site: liver, lesion: hepatocellular adenoma, dosed 104 weeks, study length 104 weeks) is 934 mg/kg/day; the TD50 (rat, strain Charles River CD (Sprague-Dawley), males, in feed, site: liver, lesion: several types, types named in the paper, dosed 104 weeks, study length 104 weeks) stood at 9780 mg/kg/day; the TD50 (rat, strain Charles River CD (Sprague-Dawley), males, in feed, site: testis, lesion: interstitial-cell tumor, dosed 104 weeks, study length 104 weeks) was 1310 mg/kg/day. In addition, the carcinogen call (rat, strain Charles River CD (Sprague-Dawley), females, in feed, site: liver, lesion: one or several types, types not named, dosed 52 weeks, study length 52 weeks) was “negative (inactive)” and the carcinogen call (rat, strain Charles River CD (Sprague-Dawley), males, in feed, site: liver, lesion: one or several types, types not named, dosed 52 weeks, study length 52 weeks) was “negative (inactive)”.

With `CC(CCl)OC(C)CCl` (stereo unspecified), the TD50 (mouse, strain B6C3F1, females, by gavage, site: any site (literature study), lesion: several types, types named in the paper, dosed 103 weeks, study length 106 weeks) worked out at 231 mg/kg/day; the TD50 (mouse, strain B6C3F1, females, by gavage, site: lung, lesion: alveolar/bronchiolar adenoma + alveolar/bronchiolar carcinoma, dosed 103 weeks, study length 106 weeks) turned out to be 311 mg/kg/day; the TD50 (mouse, strain B6C3F1, females, by gavage, site: lung, lesion: alveolar/bronchiolar adenoma, dosed 103 weeks, study length 106 weeks) is 381 mg/kg/day; the TD50 (mouse, strain B6C3F1, females, by gavage, site: stomach, lesion: squamous-cell carcinoma + squamous-cell papilloma, dosed 103 weeks, study length 106 weeks) was 1650 mg/kg/day; the TD50 (mouse, strain B6C3F1, males, by gavage, site: any site (literature study), lesion: several types, types named in the paper, dosed 103 weeks, study length 105 weeks) worked out at 116 mg/kg/day; the TD50 (mouse, strain B6C3F1, males, by gavage, site: liver, lesion: hepatocellular adenoma + hepatocellular carcinoma + neoplastic nodule, dosed 103 weeks, study length 105 weeks) is 138 mg/kg/day. In addition, the TD50 was 138 mg/kg/day (mouse, strain B6C3F1, males, by gavage, site: liver, lesion: hepatocellular adenoma + hepatocellular carcinoma, dosed 103 weeks, study length 105 weeks); 229 mg/kg/day (mouse, strain B6C3F1, males, by gavage, site: liver, lesion: hepatocellular carcinoma, dosed 103 weeks, study length 105 weeks); 259 mg/kg/day (mouse, strain B6C3F1, males, by gavage, site: lung, lesion: alveolar/bronchiolar adenoma + alveolar/bronchiolar carcinoma, dosed 103 weeks, study length 105 weeks); 306 mg/kg/day (mouse, strain B6C3F1, males, by gavage, site: lung, lesion: alveolar/bronchiolar adenoma, dosed 103 weeks, study length 105 weeks); 65.6 mg/kg/day (inactive) (rat, strain Fischer 344, females, by gavage, site: any site (literature study), lesion: several types, types named in the paper, dosed 103 weeks, study length 105 weeks); 101 mg/kg/day (inactive) under setting [1].
